From patent US8088806B2 (Achillion Pharmaceuticals, Inc., priority 2005, dated 2012) come the findings set out here.

Where only a bound is given, the exact number is not on record here.

This experiment concerns HCV replicon. Nature of the experiment: Replicon based assay of HCV replication inhibition (NPT ELISA). Particulars: Hepatitis C virus, Huh-7, 72 h, Table I; Huh-7 HCV replicon-containing cells, three days; read-out: Activity. The experiment is classed as cell-based, Hepatitis C virus. Put shortly:
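NPT (neomycin phosphotransferase) content, proportional to replicon replication, quantified by capture ELISA on day four. Before that, replicon-bearing Huh-7 cells in G418-free screening medium were exposed three days at 37° C to compound, typically six doses from 10 to 0.03 micromolar, with equal DMSO across wells.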
Background: In antiviral work, replicon cells carry a viral genome segment that copies itself.
Regarding `CCCCCOc1ccc(Nc2nc(-c3cccc(F)c3)cs2)cc1F` [compound 174, N-(3-fluoro-4-(pentyloxy)phenyl)-4-(3-fluorophenyl)thiazol-2-amine], the EC50 is under 1000 nM. The value for `CCCCCOc1ccc(Nc2nc(-c3cc(-c4ccc(Cl)c(Cl)c4)no3)cs2)cc1F` [compound 175, 4-(3-(3,4-dichlorophenyl)isoxazol-5-yl)-N-(3-fluoro-4-(pentyloxy)phenyl)thiazol-2-amine] was over 10000 nM; that for `CCCCCOc1ccc(Nc2nc(-c3cc(C(=O)OCC)no3)cs2)cc1F` [compound 176, ethyl 5-(2-(3-fluoro-4-(pentyloxy)phenylamino)thiazol-4-yl)isoxazole-3-carboxylate] was over 10000 nM; that for `CCCCCOc1ccc(Nc2nc(-c3ccccc3Cl)cs2)cc1F` [compound 177, 4-(2-chlorophenyl)-N-(3-fluoro-4-(pentyloxy)phenyl)thiazol-2-amine] was under 1000 nM.

`CCCCCOc1ccc(Nc2nc(-c3cccc(F)c3)cs2)cn1` [compound 178, N-(4-(3-fluorophenyl)thiazol-2-yl)-6-(pentyloxy)pyridin-3-amine]: the EC50 is under 1000 nM. The value for `CCCCCOc1ccc(Nc2nc(-c3cc(-c4ccc(Cl)c(Cl)c4)no3)cs2)cn1` [compound 179, N-(4-(3-(3,4-dichlorophenyi)isoxazol-5-yl)thiazol-2-yl)-6-(pentyloxy)pyridin-3-amine] was over 10000 nM; that for `CCCCCOc1ccc(Nc2nc(-c3cc(C(=O)OCC)no3)cs2)cn1` [compound 180, ethyl 5-(2-(6-(pentyloxy)pyridin-3-ylamino)thiazol-4-yl)isoxazole-3-carboxylate] was over 10000 nM; that for `CCCCCOc1ccc(Nc2nc(-c3ccccc3Cl)cs2)cn1` [compound 181, N-(4-(2-chlorophenyl)thiazol-2-yl)-6-(pentyloxy)pyridin-3-amine] was under 1000 nM. Regarding `CCCCCc1ccc(Nc2nc(-c3ccc(CC(=O)O)cc3)c(C)s2)cc1` [compound 182, 2-(4-(2-(4-pentylphenylamino)-5-methylthiazol-4-yl)phenyl)acetic acid], the EC50 is under 1000 nM.

As to `CCCCCc1ccc(Nc2nc(-c3cccc(F)c3)cs2)cc1` [compound 183, 4-(3-fluorophenyl)-N-(4-pentylphenyl)thiazol-2-amine], the EC50 is under 1000 nM. In the case of `CCCCCc1ccc(Nc2nc(-c3cc(-c4ccc(Cl)c(Cl)c4)no3)cs2)cc1` [compound 184, 4-(3-(3,4-dichlorophenyl)isoxazol-5-yl)-N-(4-pentylphenyl)thiazol-2-amine] it was over 10000 nM; in that of `CCCCCc1ccc(Nc2nc(-c3cc(C(=O)OCC)no3)cs2)cc1` [compound 185, ethyl 5-(2-(4-pentylphenylamino)thiazol-4-yl)isoxazole-3-carboxylate], over 10000 nM; in that of `CCCCCc1ccc(Nc2nc(-c3ccccc3Cl)cs2)cc1` [compound 186, 4-(2-chlorophenyl)-N-(4-pentylphenyl)thiazol-2-amine], over 10000 nM. In the case of `Cc1sc(Nc2cccc(Oc3ccccc3)c2)nc1-c1ccc(CC(=O)O)cc1` [compound 187, 2-(4-(2-(3-phenoxyphenylamino)-5-methylthiazol-4-yl)phenyl)acetic acid] it was under 1000 nM. Turning to `Fc1cccc(-c2csc(Nc3cccc(Oc4ccccc4)c3)n2)c1` [compound 188, 4-(3-fluorophenyl)-N-(3-phenoxyphenyl)thiazol-2-amine], the EC50 is under 1000 nM. In the case of `Clc1ccc(-c2cc(-c3csc(Nc4cccc(Oc5ccccc5)c4)n3)on2)cc1Cl` [compound 189, 4-(3-(3,4-dichlorophenyl)isoxazol-5-yl)-N-(3-phenoxyphenyl)thiazol-2-amine] it was over 10000 nM; in that of `CCOC(=O)c1cc(-c2csc(Nc3cccc(Oc4ccccc4)c3)n2)on1` [compound 190, ethyl S-(2-(3-phenoxyphenylamino)thiazol-4-yl)isoxazole-3-carboxylate], over 10000 nM; in that of `Clc1ccccc1-c1csc(Nc2cccc(Oc3ccccc3)c2)n1` [compound 191, 4-(2-chlorophenyl)-N-(3-phenoxyphenyl)thiazol-2-amine], under 1000 nM. For `Cc1sc(Nc2cccc(OCc3ccccc3)c2)nc1-c1ccc(CC(=O)O)cc1` [compound 192, 2-(4-(2-(3-(benzyloxy)phenylamino)-5-methylthiazol-4-yl)phenyl)acetic acid], the EC50 is under 1000 nM.

In the case of `Fc1cccc(-c2csc(Nc3cccc(OCc4ccccc4)c3)n2)c1` [compound 193, N-(3-(benzyloxy)phenyl)-4-(3-fluorophenyl)thiazol-2-amine], the EC50 is under 1000 nM. Take `Clc1ccc(-c2cc(-c3csc(Nc4cccc(OCc5ccccc5)c4)n3)on2)cc1Cl` [compound 194, N-(3-(benzyloxy)phenyl)-4-(3-(3,4-dichlorophenyl)isoxazol-5-yl)thiazol-2-amine]: the EC50 was over 10000 nM. The value for `CCOC(=O)c1cc(-c2csc(Nc3cccc(OCc4ccccc4)c3)n2)on1` [compound 195, ethyl 5-(2-(3-(benzyloxy)phenylamino)thiazol-4-yl)isoxazole-3-carboxylate] was over 10000 nM; that for `Clc1ccccc1-c1csc(Nc2cccc(OCc3ccccc3)c2)n1` [compound 196, N-(3-(benzyloxy)phenyl)-4-(2-chlorophenyl)thiazol-2-amine] was under 1000 nM; that for `CCCCCOc1ccc(Nc2nc(-c3ccc(CC(=O)O)cc3)c(C)s2)cc1C(F)(F)F` [compound 197, 2-(4-(2-(3-(trifluoromethyl)-4-(pentloxy)phenylamino)-5-methylthiazol-4-yl)phenyl)acetic acid] was under 1000 nM. The value for `CCCCCOc1ccc(Nc2nc(-c3cccc(F)c3)cs2)cc1C(F)(F)F` [compound 198, N-(3-(trifluoromethyl)-4-(pentyloxy)phenyl)-4-(3-fluorophenyl)thiazol-2-amine] was under 1000 nM; that for `CCCCCOc1ccc(Nc2nc(-c3ccc4c(c3)NC(=O)CO4)cs2)cc1C(F)(F)F` [compound 199, 6-(2-(3-(trifluoromethyl)-4-(pentyloxy)phenylamino)thiazol-4-yl)-2H-benzo[b][1,4]oxazin-3(4H)-one] was under 1000 nM. The value for `CCCCCOc1ccc(Nc2nc(-c3ccc(CC(=O)O)s3)cs2)cc1C(F)(F)F` [compound 200, 2-(5-(2-(3-(trifluoromethyl)-4-(pentyloxy)phenylamino)thiazol-4-yl)thiophen-2-yl)acetic acid] was under 1000 nM; that for `CCCCCOc1ccc(Nc2nc(-c3cc(-c4ccc(Cl)c(Cl)c4)no3)cs2)cc1C(F)(F)F` [compound 201, 4-(3-(3,4-dichlorophenyl)isoxazol-5-yl)-N-(3-(trifluoromethyl)-4-(pentyloxy)phenyl)thiazol-2-amine] was over 10000 nM; that for `CCCCCOc1ccc(Nc2nc(-c3cc(C(=O)OCC)no3)cs2)cc1C(F)(F)F` [compound 202, ethyl 5-(2-(3-(trifluoromethyl)-4-(pentyloxy)phenylamino)thiazol-4-yl)isoxazole-3-carboxylate] was under 1000 nM.

On to `CCCCCOc1ccc(Nc2nc(-c3ccccc3Cl)cs2)cc1C(F)(F)F` [compound 203, 4-(2-chlorophenyl)-N-(3-(trifluoromethyl)-4-(pentyloxy)phenyl)thiazol-2-amine], for which the EC50 is under 1000 nM. Turning to `CCCCCOc1ccc(Nc2nc(C(=O)CBr)cs2)cc1C(F)(F)F` [compound 204, 1-(2-(3-(trifluoromethyl)-4-(pentyloxy)phenylamino)thiazol-4-yl)-2-bromoethanone], the EC50 is under 1000 nM. As for `COc1cccc2sc(Nc3nc(-c4ccncc4)cs3)nc12` [compound 205, 4-methoxy-N-(4-(pyridin-4-yl)thiazol-2-yl)benzo[d]thiazol-2-amine], the EC50 was under 1000 nM.

On to `Fc1ccc2nc(Nc3nc(-c4cccnc4)cs3)sc2c1` [compound 206, 6-fluoro-N-(4-(pyridin-3-yl)thiazol-2-yl)benzo[d]thiazol-2-amine], for which the EC50 lay within 1000 to 10000 nM. For `COc1cccc2sc(Nc3nc(-c4cccnc4)cs3)nc12` [compound 207, 4-methoxy-N-(4-(pyridin-3-yl)thiazol-2-yl)benzo[d]thiazol-2-amine], the EC50 was in the range of 1000 to 10000 nM.

`CCCCCOc1ccc(Nc2nc(N)cs2)cc1C(F)(F)F` [compound 208, N2-(3-(trifluoromethyl)-4-(pentyloxy)phenyl)thiazole-2,4-diamine]: the EC50 fell in the range of 1000 to 10000 nM. In the case of `CCCCCOc1ccc(Nc2nc(-c3ccc(C(=O)OC)cn3)cs2)cc1C(F)(F)F` [compound 211, methyl 6-(2-(3-(trifluoromethyl)-4-(pentyloxy)phenylamino)thiazol-4-yl)pyridine-3-carboxylate] it was under 1000 nM; in that of `CCCCCOc1ccc(Nc2nc(-c3ccc(C(=O)O)cn3)cs2)cc1C(F)(F)F` [compound 213, 6-(2-(3-(trifluoromethyl)-4-(pentyloxy)phenylamino)thiazol-4-yl)pyridine-3-carboxylic acid], under 1000 nM.

Turning to `FC(F)Oc1ccc(-c2csc(Nc3cccnc3)n2)cc1` [compound 214, N-(4-(4-(difluoromethoxy)phenyl)thiazol-2-yl)pyridin-3-amine], the EC50 was over 10000 nM. The value for `CCCCCOc1ccc(Nc2nc(-c3ccc(C(=O)N(C)C)cn3)cs2)cc1C(F)(F)F` [compound 215, 6-(2-(3-(trifluoromethyl)-4-(pentyloxy)phenylamino)thiazol-4-yl)-N,N-dimethylpyridine-3-carboxamide] was under 1000 nM; that for `CCCCCOc1ccc(Nc2nc(CN3CCNC(=O)C3)cs2)cc1C(F)(F)F` [compound 216, 4-((2-(3-(trifluoromethyl)-4-(pentyloxy)phenylamino)thiazol-4-yl)methyl)piperazin-2-one] was under 1000 nM; that for `CCCCCOc1ccc(Nc2nc(CN3CCN(C)CC3)cs2)cc1C(F)(F)F` [compound 217, N-(3-(trifluoromethyl)-4-(pentyloxy)phenyl)-4-((4-methylpiperazin-1-yl)methyl)thiazol-2-amine] was under 1000 nM.
